According to US20260356804A1, “SODIUM CHANNEL BLOCKING COMPOUNDS, DERIVATIVES THEREOF, AND METHODS OF THEIR USE” (LATIGO BIOTHERAPEUTICS, INC., priority 2022, published 2026):
One block for each molecule: values may come before it.

Target: T1, human Nav1.8/b3 (Homo sapiens, UniProt Q9Y5Y9)
T1 construct: expressed in transfected cells; host or cells: CHO
Assay: Compound Profiling Human NaV1.8/β3 Cell Line—SyncroPatch384PE Assay (automated patch clamp, stably transfected CHO cells)
Format: cell-based
Settings: Nav1.8/b3 CHO cells

[1] = P1 (IC50, resting state block), P1 measurement, resting state block, holding potential −120 mV, first set of compounds
[2] = P2 (IC50, inactivated state block), P2 measurement, inactivated state block, inactivation step −35 mV 10 sec, first set of compounds
[3] = P1 (IC50, resting state block), P1 measurement, resting state block, holding potential −120 mV, third set of compounds
[4] = P2 (IC50, inactivated state block), P2 measurement, inactivated state block, inactivation step −35 mV 10 sec, third set of compounds
[5] = P1 (IC50, resting state block), P1 measurement, resting state block, holding potential −120 mV, second set of compounds
[6] = P2 (IC50, inactivated state block), P2 measurement, inactivated state block, inactivation step −35 mV 10 sec, second set of compounds
[7] = P1 (IC50, resting state block), P1 measurement, resting state block, holding potential −120 mV, fourth set of compounds
[8] = P2 (IC50, inactivated state block), P2 measurement, inactivated state block, inactivation step −35 mV 10 sec, fourth set of compounds

T1 sequence (Q9Y5Y9 whole entry): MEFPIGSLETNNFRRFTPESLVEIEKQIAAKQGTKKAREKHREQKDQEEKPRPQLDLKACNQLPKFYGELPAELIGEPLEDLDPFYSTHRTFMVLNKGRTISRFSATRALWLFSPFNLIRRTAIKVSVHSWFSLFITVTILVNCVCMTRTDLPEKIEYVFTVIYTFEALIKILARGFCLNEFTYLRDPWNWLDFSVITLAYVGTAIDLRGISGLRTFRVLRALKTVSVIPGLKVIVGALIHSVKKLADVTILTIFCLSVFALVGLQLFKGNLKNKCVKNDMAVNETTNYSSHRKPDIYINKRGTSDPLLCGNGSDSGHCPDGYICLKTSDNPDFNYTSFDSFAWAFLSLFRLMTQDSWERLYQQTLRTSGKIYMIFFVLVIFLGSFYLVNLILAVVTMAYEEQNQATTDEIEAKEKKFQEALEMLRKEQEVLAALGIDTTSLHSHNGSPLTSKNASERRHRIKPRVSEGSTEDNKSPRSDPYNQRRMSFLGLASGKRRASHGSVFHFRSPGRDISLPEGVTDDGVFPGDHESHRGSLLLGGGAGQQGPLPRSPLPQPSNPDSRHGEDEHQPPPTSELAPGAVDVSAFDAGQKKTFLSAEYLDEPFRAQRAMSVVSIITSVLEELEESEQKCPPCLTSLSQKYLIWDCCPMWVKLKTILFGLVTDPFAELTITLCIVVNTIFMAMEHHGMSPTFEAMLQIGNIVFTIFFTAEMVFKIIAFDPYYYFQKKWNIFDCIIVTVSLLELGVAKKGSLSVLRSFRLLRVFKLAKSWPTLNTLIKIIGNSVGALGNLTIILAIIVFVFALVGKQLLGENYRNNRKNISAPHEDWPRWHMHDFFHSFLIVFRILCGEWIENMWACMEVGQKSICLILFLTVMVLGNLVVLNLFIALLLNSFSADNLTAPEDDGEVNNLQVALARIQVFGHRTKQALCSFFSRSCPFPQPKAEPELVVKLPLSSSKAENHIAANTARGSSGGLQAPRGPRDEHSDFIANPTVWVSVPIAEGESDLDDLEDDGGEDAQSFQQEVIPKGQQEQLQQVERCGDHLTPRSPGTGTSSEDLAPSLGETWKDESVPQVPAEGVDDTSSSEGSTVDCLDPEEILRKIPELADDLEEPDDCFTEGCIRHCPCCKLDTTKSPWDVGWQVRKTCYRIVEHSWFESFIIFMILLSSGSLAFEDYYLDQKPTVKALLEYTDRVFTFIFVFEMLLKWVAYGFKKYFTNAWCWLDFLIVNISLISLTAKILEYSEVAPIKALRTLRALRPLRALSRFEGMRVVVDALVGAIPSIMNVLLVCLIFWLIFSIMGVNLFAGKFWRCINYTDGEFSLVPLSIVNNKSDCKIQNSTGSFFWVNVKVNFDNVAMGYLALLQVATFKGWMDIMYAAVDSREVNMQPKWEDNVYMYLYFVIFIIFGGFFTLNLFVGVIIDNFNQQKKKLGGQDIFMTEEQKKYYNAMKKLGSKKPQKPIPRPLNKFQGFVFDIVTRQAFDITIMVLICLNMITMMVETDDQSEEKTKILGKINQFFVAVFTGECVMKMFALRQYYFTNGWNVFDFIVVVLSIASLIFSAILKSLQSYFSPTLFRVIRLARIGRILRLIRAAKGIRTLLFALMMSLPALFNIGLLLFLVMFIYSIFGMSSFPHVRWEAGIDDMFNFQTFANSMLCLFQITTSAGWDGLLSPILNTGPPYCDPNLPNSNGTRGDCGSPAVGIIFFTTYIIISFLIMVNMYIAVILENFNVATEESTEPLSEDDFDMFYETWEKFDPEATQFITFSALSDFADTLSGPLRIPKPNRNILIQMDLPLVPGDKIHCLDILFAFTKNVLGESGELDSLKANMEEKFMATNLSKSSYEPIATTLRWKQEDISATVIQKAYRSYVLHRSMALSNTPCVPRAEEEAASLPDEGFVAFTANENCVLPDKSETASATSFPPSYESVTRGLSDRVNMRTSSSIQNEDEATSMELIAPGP
T1 sequence (Q9NY72 23-215 partner): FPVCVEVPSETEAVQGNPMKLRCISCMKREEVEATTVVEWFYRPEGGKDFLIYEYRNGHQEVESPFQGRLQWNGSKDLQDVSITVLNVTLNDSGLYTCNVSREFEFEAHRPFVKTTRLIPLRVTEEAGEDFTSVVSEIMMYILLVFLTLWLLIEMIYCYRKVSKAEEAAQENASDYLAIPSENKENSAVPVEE

- IC50 [1]: 5 to 50 nM
- IC50 [2]: 5 to 50 nM
Compound: Cc1nc(F)ccc1Oc1cc(C(F)(F)F)c(Cl)cc1C(=O)Nc1ccnc([S@@](C)(=N)=O)c1 (single isomer, unassigned) [Example 5A]

- IC50 [1]: < 5 nM
- IC50 [2]: < 5 nM
Compound: Cc1nc(F)ccc1Oc1cc(C(F)(F)F)c(Cl)cc1C(=O)Nc1ccnc([S@](C)(=N)=O)c1 (single isomer, unassigned) [Example 6A]

- IC50 [3]: 5 to 50 nM
- IC50 [4]: 5 to 50 nM
Compound: Cc1nc(F)ccc1Oc1ncc(C(F)(F)F)c(C)c1C(=O)Nc1ccnc([S@@](C)(=N)=O)c1 (single isomer, unassigned) [Example 10C]

- IC50 [3]: 5 to 50 nM
- IC50 [4]: 5 to 50 nM
Compound: Cc1nc(F)ccc1Oc1ncc(C(F)(F)F)c(C)c1C(=O)Nc1ccnc([S@](C)(=N)=O)c1 (single isomer, unassigned) [Example 11C]

- IC50 [3]: 5 to 50 nM
- IC50 [4]: 5 to 50 nM
Compound: Cc1nc(F)ccc1Oc1ncc(C(F)(F)F)c(C)c1C(=O)Nc1ccc(F)c([S@@](C)(=N)=O)c1 (single isomer, unassigned) [Example 14C]

- IC50 [3]: 5 to 50 nM
- IC50 [4]: 5 to 50 nM
Compound: Cc1nc(F)ccc1Oc1ncc(C(F)(F)F)c(C)c1C(=O)Nc1ccc(F)c([S@](C)(=N)=O)c1 (single isomer, unassigned) [Example 15C]

- IC50 [3]: 5 to 50 nM
- IC50 [4]: 5 to 50 nM
Compound: Cc1nc(F)ccc1Oc1ncc(-c2ccc3c(c2)OCCO3)c(C)c1C(=O)Nc1cccc([S@](C)(=N)=O)c1 [Example 4C, (R)-5-(2,3-dihydrobenzo[b][1,4]dioxin-6-yl)-2-((6-fluoro-2-methylpyridin-3-yl)oxy)-4-methyl-N-(3-(S-methylsulfonimidoyl)phenyl)nicotinamide]

- IC50 [7]: < 5 nM
- IC50 [8]: < 5 nM
Compound: Cc1nc(F)ccc1Oc1ncc(C(F)(F)F)c(C)c1C(=O)Nc1cccc([S@@](C)(=O)=NC(=O)C2CNC2)c1 [Example 4D, (R)—N-(3-(N-(azetidine-3-carbonyl)-S-methylsulfonimidoyl)phenyl)-2-((6-fluoro-2-methylpyridin-3-yl)oxy)-4-methyl-5-(trifluoromethyl)nicotinamide]

The next lines start with the molecule.

Compound: Cc1nc(F)ccc1Oc1cc(C(F)(F)F)c(Cl)cc1C(=O)Nc1cccc([S@](C)(=N)=O)c1 [Example 1A, (R)-5-chloro-2-((6-fluoro-2-methylpyridin-3-yl)oxy)-N-(3-(S-methylsulfonimidoyl)phenyl)-4-(trifluoromethyl)benzamide]
- IC50 [1]: < 5 nM
- IC50 [2]: < 5 nM

Compound: Cc1nc(F)ccc1Oc1cc(C(F)(F)F)c(Cl)cc1C(=O)Nc1cccc([S@@](C)(=O)=NC(=O)[C@@H](C)O)c1 [Example 1B, 5-chloro-2-((6-fluoro-2-methylpyridin-3-yl)oxy)-N-(3-((R)—N—((R)-2-hydroxypropanoyl)-S-methylsulfonimidoyl)phenyl)-4-(trifluoromethyl)benzamide]
- IC50 [5]: < 5 nM
- IC50 [6]: < 5 nM

Compound: COc1cc(C#N)ccc1Oc1ncc(-c2cnn(C)c2)c(C)c1C(=O)Nc1cccc([S@](C)(=N)=O)c1 [Example 1C, (R)-2-(4-cyano-2-methoxyphenoxy)-4-methyl-5-(1-methyl-1H-pyrazol-4-yl)-N-(3-(S-methylsulfonimidoyl)phenyl)nicotinamide]
- IC50 [3]: 50 to 100 nM
- IC50 [4]: 50 to 100 nM

Compound: CNCC(=O)N=[S@](C)(=O)c1cccc(NC(=O)c2c(Oc3ccc(F)nc3C)ncc(C(F)(F)F)c2C)c1 [Example 1D, (R)-2-((6-fluoro-2-methylpyridin-3-yl)oxy)-4-methyl-N-(3-(S-methyl-N-(methylglycyl)sulfonimidoyl)phenyl)-5-(trifluoromethyl)nicotinamide]
- IC50 [7]: < 5 nM
- IC50 [8]: < 5 nM

Compound: Cc1nc(F)ccc1Oc1cc(C(F)(F)F)ccc1C(=O)Nc1cccc([S@](C)(=N)=O)c1 [Example 2A, (R)-2-((6-fluoro-2-methylpyridin-3-yl)oxy)-N-(3-(S-methylsulfonimidoyl)phenyl)-4-(trifluoromethyl)benzamide]
- IC50 [1]: 5 to 50 nM
- IC50 [2]: 5 to 50 nM

Compound: Cc1nc(F)ccc1Oc1cc(C(F)(F)F)c(Cl)cc1C(=O)Nc1cccc([S@@](C)(=O)=NC(=O)CO)c1 [Example 2B, (R)-5-chloro-2-((6-fluoro-2-methylpyridin-3-yl)oxy)-N-(3-(N-(2-hydroxyacetyl)-S-methylsulfonimidoyl)phenyl)-4-(trifluoromethyl)benzamide]
- IC50 [5]: < 5 nM
- IC50 [6]: < 5 nM

Compound: Cc1nc(F)ccc1Oc1ncc(-c2ccc(C(F)F)cc2)c(C)c1C(=O)Nc1cccc([S@](C)(=N)=O)c1 [Example 2C, (R)-5-(4-(difluoromethyl)phenyl)-2-((6-fluoro-2-methylpyridin-3-yl)oxy)-4-methyl-N-(3-(S-methylsulfonimidoyl)phenyl)nicotinamide]
- IC50 [3]: 5 to 50 nM
- IC50 [4]: 5 to 50 nM

Compound: Cc1nc(F)ccc1Oc1ncc(C(F)(F)F)c(C)c1C(=O)Nc1cccc([S@@](C)(=O)=NC(=O)CN)c1 [Example 2D, (R)-2-((6-fluoro-2-methylpyridin-3-yl)oxy)-N-(3-(N-glycyl-S-methylsulfonimidoyl)phenyl)-4-methyl-5-(trifluoromethyl)nicotinamide]
- IC50 [7]: < 5 nM
- IC50 [8]: < 5 nM

Compound: Cc1nc(F)ccc1Oc1ccc(C(F)(F)F)c(C)c1C(=O)Nc1cccc([S@](C)(=N)=O)c1 [Example 3A, (R)-6-((6-fluoro-2-methylpyridin-3-yl)oxy)-2-methyl-N-(3-(S-methylsulfonimidoyl)phenyl)-3-(trifluoromethyl)benzamide]
- IC50 [1]: < 5 nM
- IC50 [2]: < 5 nM

Compound: Cc1nc(F)ccc1Oc1cc(C(F)(F)F)c(Cl)cc1C(=O)Nc1cccc([S@@](C)(=O)=NC(=O)[C@H](C)O)c1 [Example 3B, 5-chloro-2-((6-fluoro-2-methylpyridin-3-yl)oxy)-N-(3-((R)—N—((S)-2-hydroxypropanoyl)-S-methylsulfonimidoyl)phenyl)-4-(trifluoromethyl)benzamide]
- IC50 [5]: < 5 nM
- IC50 [6]: < 5 nM

Compound: Cc1nc(F)ccc1Oc1ncc(-c2ccc(C#N)cc2)c(C)c1C(=O)Nc1cccc([S@](C)(=N)=O)c1 [Example 3C, (R)-5-(4-cyanophenyl)-2-((6-fluoro-2-methylpyridin-3-yl)oxy)-4-methyl-N-(3-(S-methylsulfonimidoyl)phenyl)nicotinamide]
- IC50 [3]: 5 to 50 nM
- IC50 [4]: 5 to 50 nM

Compound: CC(=O)N=[S@](C)(=O)c1cccc(NC(=O)c2c(Oc3ccc(F)nc3C)ncc(C(F)(F)F)c2C)c1 [Example 3D, (R)—N-(3-(N-acetyl-S-methylsulfonimidoyl)phenyl)-2-((6-fluoro-2-methylpyridin-3-yl)oxy)-4-methyl-5-(trifluoromethyl)nicotinamide]
- IC50 [7]: < 5 nM
- IC50 [8]: < 5 nM

Compound: Cc1nc(F)ccc1Oc1ccc(C(F)(F)F)c(F)c1C(=O)Nc1cccc([S@](C)(=N)=O)c1 [Example 4A, (R)-2-fluoro-6-((6-fluoro-2-methylpyridin-3-yl)oxy)-N-(3-(S-methylsulfonimidoyl)phenyl)-3-(trifluoromethyl)benzamide]
- IC50 [1]: < 5 nM
- IC50 [2]: < 5 nM

Compound: Cc1nc(F)ccc1Oc1cc(C(F)(F)F)c(Cl)cc1C(=O)Nc1cccc([S@@](C)(=O)=NC(=O)CN)c1 [Example 4B, (R)-5-chloro-2-((6-fluoro-2-methylpyridin-3-yl)oxy)-N-(3-(N-glycyl-S-methylsulfonimidoyl)phenyl)-4-(trifluoromethyl)benzamide]
- IC50 [5]: < 5 nM
- IC50 [6]: < 5 nM
